Experimental data: ChEMBL document CHEMBL5137134, “Developing the Natural Prenylflavone Artocarpin from Artocarpus hirsutus as a Potential Lead Targeting Pathogenic, Multidrug-Resistant Staphylococcus aureus, Persisters and Biofilms with No Detectable Resistance” (J Nat Prod, 2022)
Values after ≈ are worked out from the molar mass of the structure shown. Active and inactive are the calls of the source. The calls are words filed in the database; no cut-off is given here.

Assays:
[1] = test system: Klebsiella pneumoniae; test: Antibacterial activity against Klebsiella pneumoniae BAA 1705 assessed as reduction in bacterial growth incubated for 16 to 18 hrs by broth microdilution method; type: functional; details: time 16-18 hrs
[2] = test system: Escherichia coli; test: Antibacterial activity against Escherichia coli ATCC 25922 assessed as reduction in bacterial growth incubated for 16 to 18 hrs in presence of PMBN by broth microdilution method; type: functional; details: time 16-18 hrs
[3] = test system: Acinetobacter baumannii; test: Antibacterial activity against Acinetobacter baumannii BAA 1605 assessed as reduction in bacterial growth incubated for 16 to 18 hrs in presence of PMBN by broth microdilution method; type: functional; details: time 16-18 hrs
[4] = test system: Staphylococcus aureus; test: Antibacterial activity against gentamycin/linezolid/methicillin/trimeth/sulfa resistant Staphylococcus aureus NRS 119 assessed as reduction in bacterial growth incubated for 16 to 18 hrs by broth microdilution method; type: functional; details: time 16-18 hrs
[5] = test system: Staphylococcus aureus; test: Antibacterial activity against methicillin/levoflaxacin/meropenem/erythromycin resistant Staphylococcus aureus NRS 192 assessed as reduction in bacterial growth incubated for 16 to 18 hrs by broth microdilution method; type: functional; details: time 16-18 hrs
[6] = test system: Staphylococcus aureus; test: Antibacterial activity against methicillin/levoflaxacin/meropenem resistant Staphylococcus aureus NRS 191 assessed as reduction in bacterial growth incubated for 16 to 18 hrs by broth microdilution method; type: functional; details: time 16-18 hrs
[7] = test system: Staphylococcus aureus; test: Antibacterial activity against methicillin/levoflaxacin/meropenem resistant Staphylococcus aureus NRS 186 assessed as reduction in bacterial growth incubated for 16 to 18 hrs by broth microdilution method; type: functional; details: time 16-18 hrs
[8] = test system: Staphylococcus aureus; test: Antibacterial activity against methicillin/levoflaxacin/vancomycin/meropenem/gentamycin/spectinomycin/teicoplanin resistant Staphylococcus aureus VRS 1 assessed as reduction in bacterial growth incubated for 16 to 18 hrs by broth microdilution method; type: functional; details: time 16-18 hrs
[9] = test system: Staphylococcus aureus; test: Antibacterial activity against methicillin/levoflaxacin/vancomycin/meropenem/gentamycin/spectinomycin/teicoplanin resistant Staphylococcus aureus VRS 12 assessed as reduction in bacterial growth incubated for 16 to 18 hrs by broth microdilution method; type: functional; details: time 16-18 hrs
[10] = test system: Enterococcus; test: Antibacterial activity against vancomycin sensitive/methicillin resistant Enterococcus NR 31884 assessed as reduction in bacterial growth incubated for 16 to 18 hrs by broth microdilution method; type: functional; details: time 16-18 hrs
[11] = test system: Enterococcus; test: Antibacterial activity against vancomycin sensitive/methicillin resistant Enterococcus NR 31885 assessed as reduction in bacterial growth incubated for 16 to 18 hrs by broth microdilution method; type: functional; details: time 16-18 hrs
[12] = test system: Enterococcus; test: Antibacterial activity against vancomycin sensitive/methicillin resistant Enterococcus NR 31886 assessed as reduction in bacterial growth incubated for 16 to 18 hrs by broth microdilution method; type: functional; details: time 16-18 hrs
[13] = test system: Enterococcus; test: Antibacterial activity against vancomycin sensitive/methicillin resistant Enterococcus NR 31887 assessed as reduction in bacterial growth incubated for 16 to 18 hrs by broth microdilution method; type: functional; details: time 16-18 hrs
[14] = test system: Enterococcus; test: Antibacterial activity against vancomycin sensitive/methicillin resistant Enterococcus NR 31888 assessed as reduction in bacterial growth incubated for 16 to 18 hrs by broth microdilution method; type: functional; details: time 16-18 hrs
[15] = test system: Enterococcus; test: Antibacterial activity against vancomycin/methicillin/levoflaxacin/minocycline resistant Enterococcus NR 31909 assessed as reduction in bacterial growth incubated for 16 to 18 hrs by broth microdilution method; type: functional; details: time 16-18 hrs
[16] = test system: Staphylococcus aureus; test: Bactericidal activity against Staphylococcus aureus ATCC 29213 assessed as reduction in log10 CFU at 2.5 times MIC after 5 mins by time kill assay; type: functional
[17] = test system: Staphylococcus aureus; test: Bactericidal activity against Staphylococcus aureus ATCC 29213 assessed as reduction in log10 CFU at 10 times MIC after 5 mins by time kill assay; type: functional
[18] = test system: Staphylococcus aureus; test: Antibacterial activity against Staphylococcus aureus ATCC 29213 infected in mouse J774A.1 cells assessed as reduction in intracellular bacterial cells at 5 times MIC incubated for 24 hrs followed by re-plating on TSA plate and measured after 18 to 24 hrs; type: functional
[19] = test system: Staphylococcus aureus; test: Synergistic antibacterial activity against Staphylococcus aureus ATCC 29213 assessed as reduction in bacterial growth incubated for 24 hrs in presence of linezolid by checkerboard method; type: functional
[20] = test system: Staphylococcus aureus; test: Synergistic antibacterial activity against Staphylococcus aureus ATCC 29213 assessed as reduction in bacterial growth incubated for 24 hrs in presence of meropenem by checkerboard method; type: functional
[21] = test system: Staphylococcus aureus; test: Synergistic antibacterial activity against Staphylococcus aureus ATCC 29213 assessed as reduction in bacterial growth incubated for 24 hrs in presence of rifampicin by checkerboard method; type: functional
[22] = test system: Staphylococcus aureus; test: Synergistic antibacterial activity against Staphylococcus aureus ATCC 29213 at 1 time MIC after 24 hrs in presence of gentamicin by time kill assay; type: functional
[23] = test system: Staphylococcus aureus; test: Post antibiotic effect against Staphylococcus aureus ATCC 29213 at 10 times MIC incubated for 1 hr followed by replacement with drug free medium and measured every 1 hr (reference value: 0 hr); type: functional
[24] = test system: Staphylococcus aureus; test: Bactericidal activity against Staphylococcus aureus ATCC 29213 assessed as increase in dead bacterial cells at 2.5 times MIC after 30 mins by confocal laser scanning microscopy analysis; type: functional, organism-based
[25] = test system: Staphylococcus aureus; test: Bactericidal activity against Staphylococcus aureus ATCC 29213 assessed as increase in extracellular ATP level after 1 hr by ATP bioluminescence assay; type: functional, organism-based; details: DDE = dose-dependent effect
[26] = test system: Staphylococcus aureus; test: Antibacterial activity against Staphylococcus aureus ATCC 29213 infected in BALB/c mouse neutropenic thigh infection model assessed as reduction in thigh bacterial load at 50 mg/kg, ip pre-infected with bacteria for 3 hrs followed by compound addition twice at a interval of 3 hrs and measured after 24 hrs; type: functional
[27] = test system: Staphylococcus aureus; test: Synergistic antibacterial activity against Staphylococcus aureus ATCC 29213 assessed as fractional inhibitory concentration incubated for 24 hrs in presence of gentamycin by checkerboard method; type: functional
[28] = test system: Staphylococcus aureus; test: Synergistic antibacterial activity against Staphylococcus aureus ATCC 29213 assessed as fractional inhibitory concentration incubated for 24 hrs in presence of ceftazidime by checkerboard method; type: functional
[29] = test system: Staphylococcus aureus; test: microbe, parasite or virus in culture; details: ATCC 29213
Description: Antibacterial activity against Staphylococcus aureus ATCC 29213 assessed as reduction in bacterial growth incubated for 16 to 18 hrs by broth microdilution method

COc1cc2oc(-c3ccc(O)cc3O)c(CC=C(C)C)c(=O)c2c(O)c1/C=C/C(C)C [ARTOCARPIN]
MIC [1]: > 128 µg/mL | MIC [2]: 8 µg/mL | MIC [3]: 4 µg/mL | MIC [4]: 4 µg/mL (≈ 9.16 µM) | MIC [5]: 4 µg/mL (≈ 9.16 µM) | MIC [6]: 4 µg/mL (≈ 9.16 µM) | MIC [7]: 4 µg/mL (≈ 9.16 µM) | MIC [8]: 4 µg/mL (≈ 9.16 µM) | MIC [9]: 4 µg/mL (≈ 9.16 µM) | MIC [10]: 2 µg/mL (≈ 4.58 µM) | MIC [11]: 2 µg/mL (≈ 4.58 µM) | MIC [12]: 2 µg/mL (≈ 4.58 µM) | MIC [13]: 2 µg/mL (≈ 4.58 µM) | MIC [14]: 2 µg/mL (≈ 4.58 µM) | MIC [15]: 1 µg/mL (≈ 2.29 µM) | Activity [16]: 1.4 log10CFU/ml | Activity [17]: 2.07 log10CFU/ml | Activity [18]: 3.25 log10CFU/ml | MIC [19]: 1 µg/mL | MIC [20]: 2 µg/mL | MIC [21]: 2 µg/mL | Activity [22]: 100% | PAE [23]: 22 h | Activity [24]: Active | Activity [25]: Dde | Activity [26]: 0.6 log10CFU/g | FIC [27]: 0.015 | FIC [28]: 0.5 | MIC [29]: 2 µg/mL (≈ 4.58 µM)
